The source of these data is US7642261B2, “Use of 1-[4-(5-cyanoindol-3-yl)butyl]-4-(2-carbamoyl-benzofuran-5-yl)-piperazine and its physiologically acceptable salts” (Merck Patent GmbH, priority 2002, dated 2010).

Common to all, as to assay type: in vivo
In one assay the test system is rats. Nature of the assay: Models for anxiety associated with posttraumatic stress (cat stressor; hole board, elevated plus maze, acoustic startle). To be noted: given after (acute treatment) and before (prophylactic treatment) the cat stressor. The text has this: Animal models of anxiety associated with posttraumatic stress in rats utilize the long-lasting behavioural changes induced by exposure to a native stressor. The therapeutic effects of a compound effective for the acute treatment of anxiety associated with posttraumatic stress are modelled by administration of the compound after exposure to the stressor. The therapeutic effects of a compound effective for the prophylactic treatment of anxiety associated with posttraumatic stress are modelled by administration of the compound before exposure to the stressor. Amongst the several behavioral test procedures, the following is most validated [R. E. Adamec and T. Shallow, Physiology Behavior, 1993, 54: 101-109; R. E. Adamec et al., Behav. Neurosci. 1997, 111: 435-449]. […] The hole board consists of a box (60 cm×60 cm) with four evenly spaced holes; the number of poking its head into a hole is counted for 5 minutes. […] The rat is placed in the centre of the arms, and the frequency of attempts to enter an open arm (risk assessment) as well as the time spent on the open and closed arms are measured. In the acoustic startle test, the rat is placed in a plexiglass cylinder, and a series of 20 white noise bursts of 120 dB out of a background noise of 60 dB is applied, and the latency to and the peak startle amplitude are measured. […]

The test system of the next assay is mice or rats. Nature of the assay: Hyperactivity induced by a mixture of dexamphetamine and chlordiazepoxide (model of mania/bipolar disorders). The following applies: compared with lithium and valproate. The text has this: A typical animal model of mania/bipolar disorders is the hyperactivity induced by a mixture of dexamphetamine and chlordiazepoxide according to A. L. Vale and F. Ratcliffe, Psychopharmacology, 1987; 91: 352-355, and B. J. Cao and N. A. Peng, Eur. J. Pharmacol., 1993; 237: 177-181. The dexamphetamine-chlordiazepoxide mixture induces strong hyperactivity in mice or rats.

Assay [1] concerns mice. As to the kind of experiment: Neophobia model: unfamiliar food in a novel environment. The following applies: mice deprived from food for 18 h, oral application, 3 mg/kg. The protocol: In a typical model for neophobia, mice deprived from food for 18 h are given access to unfamiliar food in a novel environment [P. Soubrie at al., Psychopharmacologica, 1975, 45: 203-210]. 1-[4-(5-cyanoindol-3-yl)butyl]-4-(2-carbamoyl-benzofuran-5-yl)-piperazine or one of its physiologically acceptable salts, in particular 1-[4-(5-cyanoindol-3-yl)butyl]-4-(2-carbamoyl-benzofuran-5-yl)-piperazine hydrochloride, following oral application increased food intake by 21% at the dose of 3 mg/kg.

In assay [2] the test system is mice. As to the kind of experiment: Light-Dark Choice Test (model for generalized anxiety disorders). To be noted: oral dose of 10 mg/kg, 5 min. The protocol:
A typical model for generalized anxiety disorders is the Light-Dark Chaise Test […] according to J. N. Crawly, Pharmacol. Biochem Behav. 1981,15: 695-699.
The light-dark choise apparatus consists of two connected boxes with one box darkened and the other one highly illuminated. A mouse is placed in one box, and the time spent in lit box and the number of transitions between boxes are measured over a period of 5 min. Normal mice only have low numbers of entries to the lit compartment and spent most time in the dark compartment.
1-[4-(5-cyanoindol-3-yl)butyl]-4-(2-carbamoyl-benzofuran-5-yl)-piperazine or one of its physiologically acceptable salts, in particular 1-[4-(5-cyanoindol-3-yl)butyl]-4-(2-carbamoyl-benzofuran-5-yl)-piperazine hydrochloride, following oral application dose -dependently increase the number of transitions and time spent in lit compartment. For example, an oral dose of 10 mg/kg of 1-[4-(5-cyanoindol-3-yl)butyl]-4-(2-carbamoyl-benzofuran-5-yl)-piperazine hydrochloride increased the number of transitions by 73% and time spent in lit compartment by 31%.

Assay [3] in a line: Cumulative Food Intake / development of body weight, rats or mice. The following applies: free access to food. The protocol: A typical animal model for eating disorders and/or obesity and/or anorexia is named Cumulative Food Intake according to H. C. Jackson, A. M, Needham, L. J. Hutchins, S. E. Mazurkiewicz, D. J. Heal, Br. J. Pharmacol., 1997, 121: 1758-1762, which can be utilized in various species. Usually, rats or mice are given free access to food, and the development of body weight is measured over time. The test can be performed in both starved and non-starved rats or mice. Moreover, chronic or acute administration of a medication can be investigated.
Thus, differential effects on body weight indicating therapeutic efficacy in either obesity or anorexia depending on the dose range used are evident.

Assay [4] in a line: Intradermal formalin test. To be noted: 10 mg/kg p.o. The protocol:
Rapid procedures to test pain-relieving properties of drugs are the abdominal constriction (writhing) test according to E. Siegmund et all., Proc. Soc. Exp. Biol. Med. 1957, 95: 729-731 and the intradermal formalin test according to S. Hunskaar et al., J. Neurosci. Meth. 1985, 14: 69-76. For example, 1-[4-(5-cyanoindol-3-y1)butyl]-4-(2-carbamoyl-benzofuran-5-yl)-piperazine hydrochloride at 30 mg/kg p.c. reduced abdominal contrictions by 82%, and 10 mg/kg p.o. reduced the formalin-induced pain response by 79%.

Assay [5] relates to mice. Nature of the assay: Four Plate Test (model for acute stress indication). To be noted: oral dose of 3 mg/kg, five minute test period. The protocol: A typical model for acute stress indication is the Four Plate Test according to C. Aron, P. Simon, C. Larousse, J. R. Boissier, Neuropharmacology 1971, 10: 459-469.
The apparatus consists of small box with a floor made up of four metal plates. Each time the mouse crosses from one plate to another, it is given a brief electric footshock reducing the amount of exploratory behavior. The number of punished crossings from one plate to another (i.e. number of shocks accepted by the animal) is recorded during a five minute test period. Normal mice make only few punished crossings, i.e. accept only a few footshocks.
1-[4-(5-cyanoindol-3-yl)butyl]-4-(2-carbamoyl-benzofuran-5-yl)-piperazine hydrochloride following and oral dose of 3 mg/kg increased the number of punished crossings by 41%.

In the case of `Cl.N#Cc1ccc2[nH]cc(CCCCN3CCN(c4ccc5oc(C(N)=O)cc5c4)CC3)c2c1` [1-[4-(5-cyanoindol-3-yl)butyl]-4-(2-carbamoyl-benzofuran-5-yl)-piperazine hydrochloride], the “effect in models for anxiety associated with posttraumatic stress” value in the assay on rats is listed as “effective”. Also, in the assay on mice or rats, the “inhibition of hyperactivity induced by the dexamphetamine-chlordiazepoxide mixture” value is “to the same degree as do lithium and valproate”. Further, the “increase of food intake” value in the assay with mice [1] is recorded as 21%. Moreover, in the assay with mice [2], the “increase of number of transitions” value was 73% and the “increase of time spent in lit compartment” value is listed as 31%. In addition, the “body weight at lower doses” value in assay [3] (orally for 4 consecutive days, lower doses of up to 50 mg/kg) was “increased body weight”. Also, the “development of body weight at higher doses” value in assay [3] (orally up to 360 mg/kg for 4 consecutive days, higher doses) was “reduced development of body weight”. Moreover, in assay [4], the “reduction of formalin-induced pain response” value was 79%. Besides, the “increase of number of punished crossings” value with mice [5] stood at 41%.
